Results reported in patent publication US6926763B2, “Purine and isosteric antibacterial compounds” (GLSynthesis, Inc., priority 2002, dated 2005).
≈ marks a conversion by molar mass, not a printed value. Read-outs that look alike come from different tables or passages of the source.

Key:
B.s. pol IIIC = B.s. pol IIIC (Bacillus subtilis, UniProt P13267); assay: biochemical; format: biochemical
Description: (§1) The ability of a test compound to inhibit the activity of DNA pol IIIC or pol IIIE enzymes can be tested by using a DNA polymerase assay as described, for example, in Barnes and Brown, Nucl. […] This rapid screening method can use natural or recombinant DNA pol III enzymes in a standard DNA polymerase activity assay. By including a test compound in a side-by-side assay with a control, the effect of the test compound on polymerase activity can be assessed.
(§2) DNA pol III activity was assayed as described in Barnes et al., Nucl.
(§3) Purified pol IIIC or pol IIIE was added to a buffered solution containing Mg^2+, DTT, glycerol, nicked calf thymus DNA, saturating concentrations of dATP, dCTP, dTTP and [^3H]-dTTP. Reaction mixtures were incubated at 30° C. for 10 min, quenched and filtered, and radioactivity in the acid-insoluble material measured by scintillation counting. Experiments were done in triplicate. Inhibitors were assayed by addition of several dilutions of a stock solution of inhibitor (DMSO or water, depending on solubility) before enzyme addition. […] The truncated assay, i.e., exclusion of the competitive substrate dGTP allows for the direct determination of apparent inhibitor constants (Ki) in this assay system.

B.s. pol IIIE = B.s. pol IIIE (Bacillus subtilis, UniProt O34623); assay: biochemical; format: biochemical
B.s. pol IIIE, sequence (O34623 whole entry): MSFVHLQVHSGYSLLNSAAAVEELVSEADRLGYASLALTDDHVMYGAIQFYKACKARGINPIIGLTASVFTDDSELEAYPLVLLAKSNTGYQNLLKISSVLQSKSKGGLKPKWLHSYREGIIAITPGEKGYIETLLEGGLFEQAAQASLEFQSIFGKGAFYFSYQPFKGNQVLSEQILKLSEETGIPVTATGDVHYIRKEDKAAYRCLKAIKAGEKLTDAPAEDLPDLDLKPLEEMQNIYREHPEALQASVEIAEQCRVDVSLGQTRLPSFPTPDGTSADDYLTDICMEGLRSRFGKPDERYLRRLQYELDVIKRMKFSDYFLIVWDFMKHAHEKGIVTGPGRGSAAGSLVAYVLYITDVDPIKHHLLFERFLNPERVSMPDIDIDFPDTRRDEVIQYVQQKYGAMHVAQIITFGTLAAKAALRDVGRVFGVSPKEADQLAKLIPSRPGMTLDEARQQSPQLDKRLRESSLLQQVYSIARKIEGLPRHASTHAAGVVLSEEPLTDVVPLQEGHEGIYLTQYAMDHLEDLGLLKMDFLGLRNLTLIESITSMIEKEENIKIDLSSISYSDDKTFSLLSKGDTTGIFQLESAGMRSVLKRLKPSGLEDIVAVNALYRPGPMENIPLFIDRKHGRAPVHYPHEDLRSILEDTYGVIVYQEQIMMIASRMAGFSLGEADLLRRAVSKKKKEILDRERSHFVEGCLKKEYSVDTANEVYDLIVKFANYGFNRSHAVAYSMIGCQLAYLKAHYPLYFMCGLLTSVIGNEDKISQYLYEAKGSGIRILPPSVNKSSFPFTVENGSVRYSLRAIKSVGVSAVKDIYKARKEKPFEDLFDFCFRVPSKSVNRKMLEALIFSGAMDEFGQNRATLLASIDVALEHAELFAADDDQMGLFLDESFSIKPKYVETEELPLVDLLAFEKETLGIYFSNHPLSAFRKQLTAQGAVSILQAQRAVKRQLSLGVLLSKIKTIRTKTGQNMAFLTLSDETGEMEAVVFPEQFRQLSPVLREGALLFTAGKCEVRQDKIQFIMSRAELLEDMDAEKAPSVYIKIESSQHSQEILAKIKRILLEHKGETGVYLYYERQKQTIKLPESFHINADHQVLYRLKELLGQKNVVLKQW
Description: as §1, §2, §3

Bacillus subtilis = assay: Inhibition of bacterial growth (agar plate MIC), B.s.; format: cell-based; conditions: agar plates, 37° C., 24 hours; for MIC: Bacillus subtilis
Description: (§4) Antimicrobial efficacy may be determined by standard methods of microbial culture in growth medium or on plates of agar supplemented with appropriate growth media. For example, microbes, e.g., mycoplasmata or Gram-positive or Gram-negative bacteria, are grown in the presence of serial dilutions of compounds in an appropriate vehicle, and, after a suitable period of growth, the microbial density is measured by visual or instrumental means. The concentration of compound at which no growth occurs is the minimum inhibitory concentration (MIC) of the compound. Test compounds with an appropriate level of growth inhibition are good candidate therapeutics for further evaluation.
(§5) Each compound was assayed against a panel of Gram-positive Bacilli, Enterococci, and Staphylococci, and Gram-negative Escherichia coli, grown in appropriate plate media solidified with 1.3% agar-agar. […] One tenth mL of diluted bacteria containing 500-1000 colony-forming units (CFU) were plated and spread, and the plates were incubated at 37° C. for 24 hours. MIC (minimum inhibitory concentration) was equivalent to the lowest concentration at which growth, i.e. colony formation, was not observed.

Staphylococcus aureus = assay: Inhibition of bacterial growth (agar plate MIC), S.a.; format: cell-based; conditions: agar plates, 37° C., 24 hours; for MIC: Staphylococcus aureus
Description: as §4, §5

S.a. (Smith) = assay: Inhibition of bacterial growth (agar plate MIC), S.a. (Smith); format: cell-based, Staphylococcus aureus; conditions: agar plates, 37° C., 24 hours; for MIC: Staphylococcus aureus
Description: as §4, §5

MRSA (B42876) = assay: Inhibition of bacterial growth (agar plate MIC), MRSA (B42876); format: cell-based, methicillin-resistant S.a.; conditions: agar plates, 37° C., 24 hours; for MIC: Staphylococcus aureus, MRSA
Description: as §4, §5

Enterococcus fecalis = assay: Inhibition of bacterial growth (agar plate MIC), E. fecalis; format: cell-based; conditions: agar plates, 37° C., 24 hours; for MIC: Enterococcus
Description: as §4, §5

Enterococcus fecium = assay: Inhibition of bacterial growth (agar plate MIC), E. fecium; format: cell-based; conditions: agar plates, 37° C., 24 hours; for MIC: Enterococcus
Description: as §4, §5

[1] = system: vancomycin-resistant E. fecium; assay: Inhibition of bacterial growth (agar plate MIC), VRE; format: cell-based, Enterococcus fecium; conditions: agar plates, 37° C., 24 hours; for MIC: Enterococcus, VRE
Description: as §4, §5

in vitro = in vitro ADME; conditions: human, Caco-2
Excerpt: Table 2 summarizes the results of cell membrane permeability assays of representative compounds of the invention. The assay utilizes CaCo2 cell culture monolayers, described by Artursson and Kalsson, Biochem. Biophys. Res.

E.c. pol IIIE = E.c. pol IIIE (Escherichia coli, UniProt P10443); assay: biochemical
E.c. pol IIIE, sequence (P10443 whole entry): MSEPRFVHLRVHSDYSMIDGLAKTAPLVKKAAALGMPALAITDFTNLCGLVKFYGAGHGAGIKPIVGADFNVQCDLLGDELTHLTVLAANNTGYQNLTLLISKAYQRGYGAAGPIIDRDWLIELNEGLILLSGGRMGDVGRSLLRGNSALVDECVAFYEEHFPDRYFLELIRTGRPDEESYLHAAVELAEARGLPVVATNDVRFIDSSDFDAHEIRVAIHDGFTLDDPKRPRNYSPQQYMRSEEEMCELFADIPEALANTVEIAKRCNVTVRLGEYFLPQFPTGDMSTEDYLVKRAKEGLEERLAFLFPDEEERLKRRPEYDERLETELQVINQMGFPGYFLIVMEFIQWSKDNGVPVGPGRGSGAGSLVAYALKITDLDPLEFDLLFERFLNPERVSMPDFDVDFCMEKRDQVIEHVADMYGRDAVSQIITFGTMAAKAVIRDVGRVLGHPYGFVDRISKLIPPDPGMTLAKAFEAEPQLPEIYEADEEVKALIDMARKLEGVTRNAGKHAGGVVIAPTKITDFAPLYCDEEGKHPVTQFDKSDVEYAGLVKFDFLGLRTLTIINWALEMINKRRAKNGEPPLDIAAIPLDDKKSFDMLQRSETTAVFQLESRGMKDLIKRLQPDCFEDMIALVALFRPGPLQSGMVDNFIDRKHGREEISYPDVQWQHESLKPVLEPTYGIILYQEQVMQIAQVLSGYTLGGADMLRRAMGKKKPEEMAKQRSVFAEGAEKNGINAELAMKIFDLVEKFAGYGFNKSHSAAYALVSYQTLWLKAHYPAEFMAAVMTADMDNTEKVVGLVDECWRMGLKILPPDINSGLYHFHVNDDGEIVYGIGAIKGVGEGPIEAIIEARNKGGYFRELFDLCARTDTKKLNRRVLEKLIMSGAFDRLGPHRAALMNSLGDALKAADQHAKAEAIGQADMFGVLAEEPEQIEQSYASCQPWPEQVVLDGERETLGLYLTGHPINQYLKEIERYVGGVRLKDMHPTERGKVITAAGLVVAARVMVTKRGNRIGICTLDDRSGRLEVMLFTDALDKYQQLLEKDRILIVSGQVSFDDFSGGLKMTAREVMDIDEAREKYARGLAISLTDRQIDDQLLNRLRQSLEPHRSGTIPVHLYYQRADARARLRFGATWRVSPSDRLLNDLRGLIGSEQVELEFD
Description: as §1, §2, §3

[2] = truncated assay without dGTP, apparent Ki, read-out: Ki, B.s. pol IIIC
[3] = truncated assay without dGTP, apparent Ki, read-out: Ki, B.s. pol IIIE
[4] = truncated assay without dGTP, apparent Ki

B.s. pol IIIC, sequence (P13267 whole entry): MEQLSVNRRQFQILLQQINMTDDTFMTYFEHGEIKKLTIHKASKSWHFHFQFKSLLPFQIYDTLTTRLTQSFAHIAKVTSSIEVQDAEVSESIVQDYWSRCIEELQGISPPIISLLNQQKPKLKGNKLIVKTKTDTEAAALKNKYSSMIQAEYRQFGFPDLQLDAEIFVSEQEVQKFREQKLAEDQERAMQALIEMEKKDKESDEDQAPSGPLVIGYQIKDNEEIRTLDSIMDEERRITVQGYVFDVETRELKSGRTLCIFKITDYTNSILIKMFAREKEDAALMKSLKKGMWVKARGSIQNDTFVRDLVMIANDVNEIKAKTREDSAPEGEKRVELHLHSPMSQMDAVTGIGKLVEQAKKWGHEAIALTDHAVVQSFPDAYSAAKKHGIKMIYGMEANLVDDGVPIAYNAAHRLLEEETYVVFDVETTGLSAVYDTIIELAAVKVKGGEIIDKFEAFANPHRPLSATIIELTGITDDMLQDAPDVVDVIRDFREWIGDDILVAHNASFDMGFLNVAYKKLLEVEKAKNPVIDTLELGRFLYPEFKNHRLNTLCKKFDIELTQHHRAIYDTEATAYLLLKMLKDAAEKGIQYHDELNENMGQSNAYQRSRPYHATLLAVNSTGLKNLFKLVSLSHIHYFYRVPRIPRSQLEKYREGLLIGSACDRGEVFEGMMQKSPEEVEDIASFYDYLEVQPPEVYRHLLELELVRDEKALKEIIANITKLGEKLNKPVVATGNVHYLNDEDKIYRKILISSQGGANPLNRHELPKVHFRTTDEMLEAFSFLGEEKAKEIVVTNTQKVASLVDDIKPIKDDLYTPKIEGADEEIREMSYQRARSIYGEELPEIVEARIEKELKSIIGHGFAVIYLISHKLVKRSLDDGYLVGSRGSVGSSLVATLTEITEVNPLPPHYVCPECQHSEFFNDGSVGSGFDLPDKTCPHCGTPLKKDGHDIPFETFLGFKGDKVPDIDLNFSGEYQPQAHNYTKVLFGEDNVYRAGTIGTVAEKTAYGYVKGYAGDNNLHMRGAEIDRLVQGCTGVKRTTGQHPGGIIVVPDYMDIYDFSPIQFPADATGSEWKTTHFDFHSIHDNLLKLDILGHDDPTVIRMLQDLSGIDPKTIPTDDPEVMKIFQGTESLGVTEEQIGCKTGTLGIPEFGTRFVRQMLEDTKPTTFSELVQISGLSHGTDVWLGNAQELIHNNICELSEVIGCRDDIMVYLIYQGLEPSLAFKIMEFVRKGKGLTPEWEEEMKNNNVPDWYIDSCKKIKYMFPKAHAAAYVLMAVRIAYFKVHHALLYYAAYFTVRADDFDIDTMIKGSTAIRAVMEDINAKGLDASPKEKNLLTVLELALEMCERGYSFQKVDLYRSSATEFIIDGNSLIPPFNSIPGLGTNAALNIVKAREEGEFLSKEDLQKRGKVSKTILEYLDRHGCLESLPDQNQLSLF

SMILES	Ki (B.s. pol IIIC; [2]) [nM]	MIC (Bacillus subtilis) [µg/mL]	MIC (S.a. (Smith)) [µg/mL]	MIC (MRSA (B42876)) [µg/mL]	MIC (Enterococcus fecalis) [µg/mL]	MIC (Enterococcus fecium) [µg/mL]	Papp (in vitro) [×10⁻⁶ cm/s]	Ki (B.s. pol IIIC) [nM]	MIC (Staphylococcus aureus) [µg/mL]	other results
O=c1[nH]c(NCc2ccc(Cl)c(Cl)c2)cc2ncn(CCCCCN3CCOCC3)c12 [Compound 5, 2-(3,4-Dichlorobenzylamino)-6-oxo-7-(5-morpholinylpentyl)-3-deazapurine]	100									Ki (B.s. pol IIIE; [3]): 290 nM; MIC, B.s. (Bacillus subtilis): 10 µg/mL (≈ 21.5 µM); MIC, S.a. (Staphylococcus aureus): 20 µg/mL (≈ 43.1 µM); MIC, S.a. (Smith) (S.a. (Smith)): 20 µg/mL (≈ 43.1 µM); MIC, MRSA (B42876) (MRSA (B42876)): 20 µg/mL (≈ 43.1 µM); MIC, E. fecalis (Enterococcus fecalis): 20 µg/mL (≈ 43.1 µM); MIC, E. fecium (Enterococcus fecium): 20 µg/mL (≈ 43.1 µM); MIC, VRE [1]: 15 µg/mL (≈ 32.3 µM)
CCc1cc(Nc2nc3ncn(CCCCO)c3c(=O)[nH]2)ccc1C [Compound 18, 7-(4-Hydroxybutyl)-2-(3-ethyl-4-methylphenylamino)-6-oxopurine]	470	15 (≈ 43.9 µM)	40 (≈ 117 µM)	30 (≈ 87.9 µM)	20 (≈ 58.6 µM)	20 (≈ 58.6 µM)	0.56			Ki, B.s. pol IIIE (B.s. pol IIIE; [4]): inact
COCCCCn1c(C)nc2cc(NCc3ccc(Cl)c(Cl)c3)[nH]c(=O)c21 [Compound 6, 2-(3,4-Dichlorobenzylamino)-6-oxo-7-(4-methoxybutyl)-8-methyl-3-deazapurine]		2.5 (≈ 6.11 µM)	7.5 (≈ 18.3 µM)	7.5 (≈ 18.3 µM)	10 (≈ 24.4 µM)	10 (≈ 24.4 µM)		1250	10 (≈ 24.4 µM)	Ki (B.s. pol IIIE): 2500 nM; Ki (E.c. pol IIIE): 426000 nM; MIC [1]: 10 µg/mL (≈ 24.4 µM)
CC(=O)OCCCCn1cnc2nc(NCc3ccc(Cl)c(Cl)c3)[nH]c(=O)c21 [Compound 7, 7-(4-Acetoxybutyl)-2-(3,4-dichlorobenzylamino)-6-oxopurine]	66	5 (≈ 11.8 µM)	2.5 (≈ 5.89 µM)	2.5 (≈ 5.89 µM)	2.5 (≈ 5.89 µM)	2.5 (≈ 5.89 µM)			5 (≈ 11.8 µM)	MIC [1]: 5 µg/mL (≈ 11.8 µM)
CCc1cc(Nc2nc3ncn(CCCCCN4CCC(O)(c5ccc(Cl)c(C(F)(F)F)c5)CC4)c3c(=O)[nH]2)ccc1C [Compound 23, 7-{5-[4-hydroxy-4-(3-trifluoromethyl-4-chlorophenyl)piperidyl]pentyl}-2-(3-ethyl-4-methylphenylamino)-6-oxopurine]	130									Ki (B.s. pol IIIE; [3]): 38000 nM; MIC, B.s. (Bacillus subtilis): 2.5 µg/mL (≈ 4.05 µM); MIC, S.a. (Staphylococcus aureus): 5 µg/mL (≈ 8.1 µM); MIC, S.a. (Smith) (S.a. (Smith)): 5 µg/mL (≈ 8.1 µM); MIC, MRSA (B42876) (MRSA (B42876)): 5 µg/mL (≈ 8.1 µM); MIC, E. fecalis (Enterococcus fecalis): 5 µg/mL (≈ 8.1 µM); MIC, E. fecium (Enterococcus fecium): 5 µg/mL (≈ 8.1 µM); MIC, VRE [1]: 5 µg/mL (≈ 8.1 µM)
CCc1cc(Nc2cc3ncn(CCCCOC)c3c(=O)[nH]2)ccc1C [Compound 15, 2-(3-Ethyl-4-methylphenylamino)-6-oxo-7-(4-methoxybutyl)-3-deazapurine]		2.5 (≈ 7.05 µM)		10 (≈ 28.2 µM)	10 (≈ 28.2 µM)	10 (≈ 28.2 µM)		1500		Ki, B.s. pol IIIE (B.s. pol IIIE; [4]): inact
CC(C)NCC(O)COc1cccc2ccccc12 (stereo not drawn) [Propranolol, reference compound]							19.3			
COCCCCn1cnc2cc(NCc3ccc(Cl)c(Cl)c3)[nH]c(=O)c21 [Compound 2, 2-(3,4-Dichlorobenzylamino)-6-oxo-7-(4-methoxybutyl)-3-deazapurine]		0.625 (≈ 1.58 µM)	3.75 (≈ 9.49 µM)		5 (≈ 12.6 µM)	5 (≈ 12.6 µM)		190		Ki (B.s. pol IIIE): 370 nM; Ki (E.c. pol IIIE): 56000 nM
CCc1cc(Nc2nc3ncn(CCCCCOC(C)=O)c3c(=O)[nH]2)ccc1C [Compound 19, 7-(5-Acetoxypentyl)-2-(3-ethyl-4-methylphenylamino)-6-oxopurine]							0.58			
O=c1[nH]c(NCc2ccc(Cl)c(Cl)c2)nc2ncn(CCCCCO)c12 [Compound 12, 7-(5-Hydroxypentyl)-2-(3,4-dichlorobenzylamino)-6-oxopurine]	52				5 (≈ 12.6 µM)	10 (≈ 25.2 µM)			20 (≈ 50.5 µM)	
